The subject of experiment [1] is Vancomycin intermediate MRSA Mu50. The format is cell-based, S. aureus. To be noted: Mueller-Hinton Broth. As to the method: (§1) Antibiotic susceptibility was tested using standard procedures in Mueller-Hinton Broth for most strains. Enterococcus strains were grown in Brain Heart Infusion media (BHI; BD Biosciences). Streptomyces MICs were determined in Bennett’s media (10 g potato starch, 2 g casamino acids, 1.8 g yeast extract, 0.2 g KCl, 0.2 g MgSO4·7H2O, 0.24 g NaNO3, 4 mg FeSO4·7H2O, 1 L ddH2O, pH 6.8).

For a further experiment, the system named is MRSA USA300. The class given is cell-based, S. aureus. As to conditions: Mueller-Hinton Broth. The procedure: as §1
The next experiment deals with hVISA MRSA Mu3. The format is cell-based, S. aureus. As to conditions: Mueller-Hinton Broth. As to the method: as §1
A further experiment concerns mutanolysin. The experiment in a line: Peptidoglycan autolysin digestion in vitro, mutanolysin. As to conditions: mutanolysin 20 µg/mL, 1 mg/mL B. subtilis PG, 20 mM sodium acetate pH 6.5, 30 min preincubation, OD600, 37 °C, triplicate. The format is biochemical. The procedure: (§2) The muramidase mutanolysin was purchased from Sigma. The glucosaminidase domain from LytD was cloned from B. subtilis 168 into pET28 between NcoI and XhoI restriction sites for introduction of C-term 6× His. Construct was expressed from E. coli BL21(DE3) pLysS by inoculating 1 L of LB media 1:50 from an overnight culture, then growing at 37 °C until OD600 reached 0.6, at which time the cells were induced with 1 mM IPTG and grown for 18 h at 16 °C. Native LytD-6× His was purified by Ni-NTA affinity chromatography and cation exchange chromatography. Protein purity was >95% as assessed by SDS-PAGE analysis.
(§3) B. subtilis peptidoglycan for binding and digestion assays was prepared by harvesting the cells (OD600 0.6–0.7), boiled in 4% SDS, and washed and sonicated to break up sacculi, followed by α-amylase and DNase treatment, and digested with pronase overnight. The peptidoglycan was boiled in 2% SDS again, washed, and teichoic acids were hydrolysed with 1 M HCl. The peptidoglycan was washed with water to pH 6.0 and lyophilized to use. Peptidoglycan was digested under optimized conditions with either mutanolysin (20 µg/mL, 1 mg/mL PG, 20 mM sodium acetate, pH 6.5) or LytD (10 µg/mL, 1 mg/mL PG, 200 mM NaCl, 50 mM MES-NaOH, pH 5.5). […] The plate was covered with a clear, breathable film to prevent evaporation, and OD600 was tracked on a Tecan sunrise microplate reader shaking at 37 °C.

In experiment [2] the test system is B. subtilis 168. Description: Brightfield microscopy of cell morphology at sub-MIC. The class given is cell-based. To be noted: B. subtilis 168 grown with sub-MIC (0.6× MIC, 3.2 µg/mL GP6738) to mid-log phase.
Experiment [3] relates to B. subtilis 168. The experiment in a line: Cell lysis assay / growth tracking (OD600). The class given is cell-based. The procedure:
Early exponential phase B. subtilis 168 (OD600 ~0.25) grown in LB media was dispensed 100 µL per well into a round bottom 96 well plate. Antibiotics were supplemented to the appropriate concentration, and where appropriate lytic agents were added (50 µg/mL fosfomycin, 100 µg/mL ampicillin, 100 mM sodium azide). The plate was covered with a clear, breathable film and OD600 was monitored on a Tecan sunrise microplate reader at 37 °Cwith shaking.

The subject of experiment [4] is panel of indicator strains. The experiment in a line: MIC determination against a panel of indicator strains, comparison of Type V GPAs. The format is cell-based. As to the method: as §1
Another experiment relates to S. coelicolor M1154. Description: MIC, antibiotic susceptibility testing. The class given is cell-based. As to conditions: Bennett's media. As to the method:
as §1

Experiment [5] relates to S. coelicolor M1154/pAMX4/pGP6738. Description: MIC, antibiotic susceptibility testing. To be noted: Bennett's media. The class given is cell-based. The procedure: as §1
Experiment [6] in a line: Peptidoglycan binding assay. More on the design: species or system B. subtilis. To be noted: 0.1 mg/mL GP6738 in water with 20% DMSO, PG 25:1 to 200:1 w/w, 1–2 h at 37 °C, unbound compound by HPLC. As to the method:
To assess peptidoglycan binding, GP6738 was diluted to 0.1 mg/mL in water with 20% (v/v) DMSO to aid GP6738 solubility. For each 100 μL binding assay, B. subtilis peptidoglycan was added to 0 mg/mL, 2.5 mg/mL, 5 mg/mL, 10 mg/mL or 20 mg/mL for 0, 25:1, 50:1, 100:1 and 200:1 w/w ratios, respectively. Mixtures were incubated for 1–2 h at 37 °C, then centrifuged for 10 min to thoroughly pellet insoluble material, and the supernatant was removed for analysis. Samples were prepared for HPLC analysis by the addition of NH4OH to 0.01% (v/v), and 50 µL was injected on the HPLC. Analysis was performed using a Thermo Hypersil GOLD aQ C18 4.6 × 150 mm column and the following gradient at 0.8 mL/min, 40 °C: t = 0–2 min 0% solvent B, t = 10–13 min 65% solvent B, t = 14 min 0% solvent B (solvent A: 0.01% v/v NH4OH in water [pH 9.6] and solvent B: ACN).

A further experiment deals with S. venezuelae ATCC10712. The format is cell-based. As to conditions: Bennett's media. As to the method:
as §1

Experiment [7] concerns E. coli BW25113ΔbamBΔtolC. The format is cell-based. As to conditions: Mueller-Hinton Broth. The procedure: as §1
Experiment [8] concerns B. subtilis 168. The format is cell-based. As to conditions: Mueller-Hinton Broth. As to the method: as §1
A further experiment concerns E. faecium ATCC19434. The class given is cell-based. To be noted: Brain Heart Infusion media. As to the method:
as §1

The test system of a further experiment is E. faecium ATCC29212. The format is cell-based. As to conditions: Brain Heart Infusion media. The procedure: as §1
A further experiment concerns E. coli BW25113. The format is cell-based. As to conditions: Mueller-Hinton Broth. The procedure: as §1
In another experiment the test system is S. aureus ATCC29213. The class given is cell-based. As to conditions: Mueller-Hinton Broth. As to the method:
as §1

In experiment [9] the test system is E. faecium ATCC51299 (VREB). The class given is cell-based. To be noted: Brain Heart Infusion media. The procedure: as §1
In experiment [10] the test system is E. faecium ATCC70022 (VREA). The format is cell-based. To be noted: Brain Heart Infusion media. As to the method: as §1
In the next experiment the test system is LytD. Description: Peptidoglycan autolysin digestion in vitro, LytD. The class given is biochemical, B. subtilis 168. As to conditions: LytD 10 µg/mL, 1 mg/mL B. subtilis PG, 200 mM NaCl, 50 mM MES-NaOH pH 5.5, 30 min preincubation, OD600, 37 °C, triplicate. The procedure:
as §2, §3

The conditions of experiment [11]: amide linkage changed to an ester; cited from earlier work. From the text:
Glycopeptide antibiotics (GPAs), such as vancomycin and teicoplanin (Fig. 1a), are microbial natural products (NPs) that are essential for the control of infections caused by Gram-positive pathogens. Vancomycin and teicoplanin inhibit bacterial cell wall biosynthesis by binding to the D-Alanine-D-Alanine terminating dipeptide of growing peptidoglycan and its extracellular precursors. Like all antibiotics, GPAs are vulnerable to resistance. Vancomycin resistance occurs through reprogramming of cell wall biosynthesis, mediated by a vanRSHAX resistance cassette that replaces the D-Ala-D-Ala te ...

For a further experiment, the system named is Bacillus subtilis 168. The experiment in a line: Antibacterial activity assay (bioassay) of fermentation extracts. The class given is cell-based. As to conditions: B. subtilis 168. From the text:
Supplementary Fig. 4. Bioassay of corbomycin heterologous expression extracts against B. subtilis 168. Crude extracts from S. coelicolor M1154/pGP1529 strain do […]
from S. coelicolor M1154/pAMX4/pGP1529. […]
parental strain S. sp. WAC01529 are likely the result of uncharacterized compounds produced by this strain, as equivalent amounts of purified corbomycin as are present […]
Source data are provided as a Source Data file.
(1 picture or pasted object on this page, not shown here)

≈ marks a conversion by molar mass, not a printed value.

Broadly, the MIC is the lowest concentration found to suppress growth. Lower therefore signals inhibition by little substance.

As to `CC(C)C(NC(=O)C(NC(=O)C(N)c1cc(O)cc(O)c1)c1cc(O)cc(O)c1)C(=O)NC1Cc2c[nH]c3cc(ccc23)-c2cc3cc(c2O)Oc2ccc(cc2)CC(C(=O)NC(C(=O)O)c2cc(O)cc(O)c2)NC(=O)C(c2cc(O)cc(O)c2)NC(=O)C3NC(=O)C(c2cc(O)cc(O)c2)NC1=O` (stereo not shown) [GP6738], the minimum inhibitory concentration (MIC) in experiment [1] is 2 to 4 µg/mL; against MRSA USA300, 4 µg/mL (≈ 2.78 µM); against hVISA MRSA Mu3 it was 4 µg/mL (≈ 2.78 µM); against S. coelicolor M1154, 16 µg/mL (≈ 11.1 µM); in [5], 16 µg/mL (≈ 11.1 µM); against S. venezuelae ATCC10712 it was 16 µg/mL (≈ 11.1 µM). The MIC in [7] is over 256 µg/mL; in the experiment on B. subtilis 168 [8], 4 µg/mL (≈ 2.78 µM); with E. faecium ATCC19434, 64 µg/mL (≈ 44.5 µM); against E. faecium ATCC29212 it was 64 µg/mL (≈ 44.5 µM); in the experiment with E. coli BW25113 it was over 256 µg/mL; with S. aureus ATCC29213, 4 µg/mL (≈ 2.78 µM). In addition, the MIC in experiment [9] and in [10] was 64 µg/mL (≈ 44.5 µM) throughout. In addition, in the experiment with mutanolysin, the “block of peptidoglycan digestion by mutanolysin” value is listed as “blocks cell wall digestion”. Further, the cell morphology entry in the experiment with B. subtilis 168 [2] is “characteristic elongated cell morphology of autolysin inhibition”. Also, in the experiment with B. subtilis 168 [3] (B. subtilis 168, 10-fold MIC, OD600, 37 °C, n = 3), the “bacteriostatic or bacteriolytic effect, growth tracking” value is recorded as “bacteriostatic phenotype”. Further, the “block of cell lysis induced by lytic agents” value in the experiment on B. subtilis 168 [3] (B. subtilis 168, 10× MIC, 50 µg/mL fosfomycin, 100 µg/mL ampicillin or 100 mM sodium azide, OD600, n = 3) is “able to block cell lysis”. The “fold higher MIC of GP6738 compared to corbomycin” value in experiment [4] was 2–16 fold. In addition, the binding to peptidoglycan entry in experiment [6] is recorded as “binding to peptidoglycan”. Also, the “block of peptidoglycan digestion by LytD” value with LytD is “blocks cell wall digestion”.

In the case of `CN[C@H](CC(C)C)C(=O)N[C@H]1C(=O)N[C@@H](CC(N)=O)C(=O)N[C@H]2C(=O)N[C@H]3C(=O)N[C@H](C(=O)N[C@H](C(=O)O)c4cc(O)cc(O)c4-c4cc3ccc4O)[C@H](O)c3ccc(c(Cl)c3)Oc3cc2cc(c3O[C@@H]2O[C@H](CO)[C@@H](O)[C@H](O)[C@H]2O[C@H]2C[C@](C)(N)[C@H](O)[C@H](C)O2)Oc2ccc(cc2Cl)[C@H]1O` [Vancomycin], the MIC in experiment [1] is 8 µg/mL (≈ 5.52 µM); against MRSA USA300, 1 µg/mL (≈ 0.69 µM); against hVISA MRSA Mu3, 2 µg/mL (≈ 1.38 µM); against S. coelicolor M1154, 256 µg/mL (≈ 177 µM); in experiment [5], 256 µg/mL (≈ 177 µM); against S. venezuelae ATCC10712, 0.25 µg/mL (≈ 0.173 µM). For the same compound, the MIC in experiment [7] is 8 µg/mL (≈ 5.52 µM); in the experiment with B. subtilis 168 [8], 0.25 µg/mL (≈ 0.173 µM); against E. faecium ATCC19434 it was 2 µg/mL (≈ 1.38 µM); in the experiment on E. faecium ATCC29212, 2 µg/mL (≈ 1.38 µM); with E. coli BW25113 it was 256 µg/mL (≈ 177 µM); in the experiment on S. aureus ATCC29213 it was 1 µg/mL (≈ 0.69 µM). The results for the minimum inhibitory concentration (MIC) in experiment [9] and in experiment [10] were 32 µg/mL (≈ 22.1 µM) and over 256 µg/mL, respectively. For the same compound, the “decrease of affinity of vancomycin on change of D-Ala-D-Ala to D-Ala-D-Lactate” value in [11] was 1000 fold.

Complestatin: the MIC in [1] came to 0.5 µg/mL; against MRSA USA300, 2 µg/mL; in the experiment with hVISA MRSA Mu3, 0.5 µg/mL; in the experiment with S. coelicolor M1154 it was 4 µg/mL; with S. venezuelae ATCC10712, 2 µg/mL; in experiment [7] it was 64 µg/mL. The MIC in the experiment on B. subtilis 168 [8] was 0.5 µg/mL; against E. faecium ATCC19434, 64 µg/mL; in the experiment on E. faecium ATCC29212, 32 µg/mL; against E. coli BW25113, over 256 µg/mL; in the experiment on S. aureus ATCC29213, 2 µg/mL; in experiment [9], 32 µg/mL. Further, the MIC in experiment [10] stood at 64 µg/mL.

Turning to Corbomycin, the MIC in experiment [1] came to 1 µg/mL; with MRSA USA300, 1 µg/mL; in the experiment on hVISA MRSA Mu3 it was 1 µg/mL; with S. coelicolor M1154, 4 µg/mL; in experiment [5], 4 µg/mL; in the experiment on S. venezuelae ATCC10712, 2 µg/mL. Also, the MIC in experiment [7] was 32 µg/mL; with B. subtilis 168 [8], 1 µg/mL; against E. faecium ATCC19434 it was 4 µg/mL; with E. faecium ATCC29212, 4 µg/mL; against E. coli BW25113, over 256 µg/mL; in the experiment on S. aureus ATCC29213, 1 µg/mL. The MIC in experiment [9] and in [10] was 4 µg/mL in each case. Moreover, the “growth inhibition / zones of inhibition” value in the experiment with Bacillus subtilis 168 was “do not give zones”.
